#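 Exposure lasted 48 hours, with cells grown in 96-well plates and compounds tested at five concentrations. The concentration for 50% growth inhibition is given as GI50. TGI marks complete inhibition of growth.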
# Legend:
# Test in all cases: DTP human tumour cell line panel, 48 h
# A549 NSCLC = system: A549 NSCLC
# HCT-15 colon = system: HCT-15 colon
# HOP-62 NSCLC = system: HOP-62 NSCLC
# IGROV1 ovarian = system: IGROV1 ovarian
# LOX IMVI melanoma = system: LOX IMVI melanoma
# M14 melanoma = system: M14 melanoma
# NCI-H460 lung = system: NCI-H460 lung
# OVCAR-3 ovarian = system: OVCAR-3 ovarian
# SK-MEL-28 melanoma = system: SK-MEL-28 melanoma
# UO-31 renal = system: UO-31 renal
Compound,TGI (A549 NSCLC),TGI (HCT-15 colon),TGI (HOP-62 NSCLC),TGI (IGROV1 ovarian),TGI (LOX IMVI melanoma),TGI (M14 melanoma),TGI (NCI-H460 lung),TGI (OVCAR-3 ovarian),TGI (SK-MEL-28 melanoma),TGI (UO-31 renal),GI50 (A549 NSCLC),GI50 (HCT-15 colon),GI50 (HOP-62 NSCLC),GI50 (IGROV1 ovarian),GI50 (LOX IMVI melanoma),GI50 (M14 melanoma),GI50 (NCI-H460 lung),GI50 (OVCAR-3 ovarian),GI50 (SK-MEL-28 melanoma),GI50 (UO-31 renal)
COc1ccc(/C=C\c2cc(OC)c3c(c2)OCO3)c(O)c1O,> 100 µM,59.8 µM,64.5 µM,20.9 µM,16.6 µM,11.7 µM,22.2 µM,47.4 µM,24.1 µM,12 µM,–,–,–,–,–,–,–,–,–,–
CC(C)c1ccc(C(C)C(=O)N(CC2=C(C(C)c3ccccn3)c3ccccc3C2)C(C)C)cc1 (configuration not stated),> 100 µM,18 µM,> 100 µM,31.3 µM,8.23 µM,15.6 µM,8.35 µM,11.6 µM,66.2 µM,7.29 µM,3.85 µM,2.84 µM,5.26 µM,2.77 µM,2.54 µM,3.93 µM,2.62 µM,3.26 µM,10.8 µM,1.53 µM
CC1(C)COC(c2ccc(C(F)(F)F)cc2C(O)c2ccc3ccccc3c2)=N1 (configuration not stated),> 100 µM,> 100 µM,> 100 µM,> 100 µM,> 100 µM,> 100 µM,> 10 µM,> 100 µM,> 100 µM,> 100 µM,> 10 µM,> 100 µM,> 100 µM,> 100 µM,> 100 µM,> 100 µM,–,> 100 µM,> 100 µM,> 100 µM
CN(CC(=O)O)S(=O)(=O)c1ccc2ccccc2c1,> 100 µM,> 100 µM,–,> 100 µM,> 100 µM,> 100 µM,> 100 µM,> 100 µM,> 100 µM,> 100 µM,–,–,–,–,–,–,–,–,–,–
Oc1ccc(Cl)cc1-c1cc(-c2ccccc2Cl)[nH]n1,> 100 µM,> 100 µM,> 100 µM,> 100 µM,–,> 100 µM,> 100 µM,> 100 µM,> 100 µM,> 100 µM,4.74 µM,0.488 µM,19.3 µM,1.66 µM,–,25.9 µM,3.47 µM,2.37 µM,> 100 µM,3.77 µM
O=C(O)CCSC(=O)Nc1cccc(F)c1,> 100 µM,> 100 µM,95.7 µM,–,> 100 µM,45.4 µM,> 100 µM,> 100 µM,> 100 µM,> 100 µM,–,–,–,–,–,–,–,–,–,–
COC(=O)Nc1nc2ccc(S(=O)c3ccccc3)cc2[nH]1 (configuration not stated),> 100 µM,> 100 µM,> 100 µM,> 100 µM,> 100 µM,> 100 µM,> 100 µM,> 100 µM,> 100 µM,> 100 µM,5.48 µM,4.58 µM,3.64 µM,7.51 µM,5.96 µM,3.11 µM,4.17 µM,7.39 µM,3.78 µM,8 µM
CC1=C(C(=O)Nc2ccc(F)c(Cl)c2)C(c2ccc(Cl)cc2)NC(=O)N1 (configuration not stated),46.3 µM,41.1 µM,30.8 µM,31.9 µM,32 µM,33.6 µM,37.3 µM,38.4 µM,32.6 µM,30.1 µM,20.1 µM,19.5 µM,15.5 µM,12.6 µM,16.6 µM,16.5 µM,17.5 µM,17.8 µM,16.5 µM,15.1 µM
CC(=O)OC(C)C(=O)C1c2cccc(O)c2C(=O)c2c(O)cc(C)cc21 (configuration not stated),1.11 µM,1.55 µM,1.01 µM,1.66 µM,1.82 µM,–,1.35 µM,1.43 µM,2.3 µM,0.744 µM,–,–,–,–,–,–,–,–,–,–
C[C@@H](CS(C)(=O)=O)Nc1ncc2cc(Oc3ccc(F)cc3F)c(=O)n(C)c2n1,> 25 µM,> 25 µM,> 25 µM,> 25 µM,> 25 µM,> 25 µM,> 25 µM,> 25 µM,> 25 µM,> 25 µM,> 25 µM,> 25 µM,> 25 µM,> 25 µM,> 25 µM,> 25 µM,> 25 µM,> 25 µM,> 25 µM,> 25 µM
CC(=O)[O][Hg][c]1c(N)c(C)cc(C)c1F,28.8 µM,2.55 µM,5.49 µM,2.79 µM,2.54 µM,3.29 µM,4.3 µM,2.28 µM,2.83 µM,3.15 µM,9.72 µM,1.01 µM,2.75 µM,0.939 µM,0.833 µM,1.55 µM,1.74 µM,1.01 µM,1.37 µM,1.64 µM
COc1cc2nc(C)nc(N[C@H](C)c3cc(N)cc(C(F)(F)F)c3)c2cc1O[C@H]1CCOC1,32.4 µM,27.6 µM,25.6 µM,20.3 µM,28.1 µM,31.7 µM,36.6 µM,38.4 µM,29.6 µM,17.3 µM,14.8 µM,12.6 µM,11.1 µM,2.25 µM,12.2 µM,16.1 µM,18.5 µM,15.6 µM,16 µM,2.28 µM
N#CC(C#N)=c1ccc(=C2NCC3CCCN23)cc1 (configuration not stated),> 100 µM,> 100 µM,> 100 µM,> 100 µM,> 100 µM,> 100 µM,> 100 µM,–,–,> 100 µM,–,–,–,–,–,–,–,–,–,–
O=C1c2cccnc2-c2nc(-c3ccccc3[N+](=O)[O-])cc3c2c1nc1ccccc13,30.1 µM,32.9 µM,41 µM,83.3 µM,13.7 µM,10.7 µM,33.8 µM,> 32.4 µM,> 63.5 µM,32.5 µM,14.4 µM,12 µM,16 µM,12.3 µM,2.84 µM,2.99 µM,12 µM,0.432 µM,27.6 µM,12.5 µM
